{"source": "patent US12551465B2", "about": "(priority 2020, dated 2026)", "key": {"[1]": {"test": "not given", "remark": "listed apart in the source"}, "healthy volunteers [2]": {"test_system": "healthy volunteers", "test": "Electrocardiogram (QTcF, QRS) after repeated dose in healthy volunteers (Example 2)", "procedure": "(§3) The electrocardiogram is checked after resting in a supine position in a quiet environment (e.g., without distracting factors) for at least 5 minutes. A sticky pad is attached to the body, and the pad has a thin wire connected to a machine that records measurements of the heart and prints a report. Each time an electrocardiogram is performed, the clinical trial staff performs three electrocardiogram recordings. The time between ECG recordings should not exceed 2 minutes, and the total time should not exceed 10 minutes.\n(§4) Primary assessment variables were safety, tolerability and side effects, and the clinical test items were 12-electrode electrocardiogram (including corrected QT interval (calculated by Fridericia formula) [QTc(F)]), QT interval, QRS interval, PR interval, and ventricular rate), vital signs (blood pressure, pulse, body temperature, respiration rate), hypersensitivity (determined by ECG recording and vital signs), clinical laboratory assessment (hematology, blood chemistry, urinalysis, etc.), and adverse events (including serious adverse events).\nFor participants in Cohort 4, electrocardiogram, pharmacodynamic assessment (echocardiography), etc. were performed on one day before administration, the day of administration (day 1), one day after administration (day 2), day 5 and day 6.\nFor participants in Cohort 5, electrocardiogram, pharmacodynamic assessment (echocardiography), etc. were performed on one day before administration, the day of administration (day 1), and day 5, day 14 and day 15.\nFor participants in Cohort 6, electrocardiogram, pharmacodynamic assessment (echocardiography), etc. were performed on one day before administration, the day of administration (day 1), and day 5 and day 14."}, "healthy volunteers [3]": {"test_system": "healthy volunteers", "test": "Electrocardiogram (QTcF, QRS) after single dose in healthy volunteers (Example 1)", "procedure": "as §3\n(§5) Primary assessment variables were safety, tolerability and side effects, and the clinical trial items were 12-electrode electrocardiogram (including corrected QT interval (calculated by Fridericia formula) [QTc(F)]), QT interval, QRS interval, PR interval, and ventricular rate), vital signs (blood pressure, pulse, body temperature, respiration rate), hypersensitivity (determined by ECG recording and vital signs), clinical laboratory assessment (hematology, blood chemistry, urinalysis, etc.), and adverse events (including serious adverse events).\nFor participants in Cohorts 1 to 3, electrocardiogram, pharmacodynamic assessment (echocardiography), etc. were performed on one day before administration, the day of administration (day 1), and for two days after administration (48 hours, day 2 and day 3)."}, "patients with HOCM [4]": {"test_system": "patients with HOCM", "conditions": "for Mean LVOT gradient at rest, actual measured value / Mean LVOT gradient at rest, decrease rate / Mean LVOT gradient with Valsalva maneuver, actual measured value / Mean LVOT gradient with Valsalva maneuver, decrease rate: drug (6) and placebo (2)", "description": "Echocardiography (heart scanning): In a state in which the patient is lying flat, a transducer is placed on the chest of the patient, and high-frequency sound waves (sound waves higher than those that humans can hear) are delivered into the body towards the heart. As the sound wave passes through other parts of the body, a part of the wave bounces back to the transducer, and the image of the heart and blood flow is interpreted by the ultrasound machine. This is to examine the heart's ability to eject blood, as well as heart abnormalities, including the atria, valves and major blood vessels.\n(§1) A total of up to 24 subjects were enrolled in 3 cohorts (8 per cohort). The subjects underwent at least one set of screening, hospital stay, and the end of study (EOS). Based on (1) safety data reviewed by the Safety Review Committee (SRC) and (2) consent to participate, subjects who underwent EOS in one cohort study could participate in another subsequent cohort study after a washout period of at least 7 days after they received the last investigational medicinal product on day 5 of the previous cohort study.\n(§2) If subjects participated in another cohort study of Cohort 1 or 2, screening and inclusion/exclusion criteria were re-evaluated after the washout period. […] All subjects in each cohort were reviewed for safety data by the Safety Review Committee (SRC) after EOS before enrollment in the next dose cohort. The maximum duration of the clinical trial was over 15 weeks, including 9 weeks of screening, approximately 3 weeks of hospital stay and 3 weeks of EOS.\nIn the case of once-a-day administration, the test drug was administered in the morning of each administration day. In the case of twice-a-day administration, the test drug was administered at 12-hour intervals (in the morning and in the evening) on from day 1 to day 4 and administered only in the morning on day 5.\nSubjects who meet the following criteria are considered eligible to participate in the clinical trial: • patients with a maximal left ventricular wall thickness of 15 mm or more (13 mm or more for patients with a family history); • patients with a left ventricular outflow tract (LVOT) gradient of 30 mmHg or more at rest, or an LVOT gradient of 50 mmHg or more after provocation (including provocation such as Valsalva maneuver, standing, post-exercise, etc.); or • patients with a left ventricular ejection fraction (LVEF) of 55% or more. Exclusion Criteria\nSecondary assessment variables were pharmacokinetics including Cmax, and the left ventricular outflow track (LVOT) gradient and left ventricular ejection fraction (LVEF) by transthoracic echocardiography (TTE), as wells as blood B-natriuretic peptide (BNP) and troponin levels.\nIn Example 3 above, the left ventricular outflow track (LVOT) gradient), which is an effect indicator, was measured on day 5 of administration."}, "patients with HOCM [5]": {"test_system": "patients with HOCM", "conditions": "Cohort 1 of Example 3, 200 mg once a day for 5 days", "description": "as §1, §2"}, "healthy volunteers [6]": {"test_system": "healthy volunteers", "test": "Clinical safety and tolerability, single dose, healthy volunteers (Example 1)", "source_text": "(§6) In this study, a total of 24 subjects were randomized 1:1:1 to three cohorts and subjected to a total of four stages: screening, treatment period 1, drug withdrawal period, and treatment period 2. The ratio between the drug administration group and the non-drug-administration group (placebo) was 6:2.\nas §5"}, "healthy volunteers [7]": {"test_system": "healthy volunteers", "test": "Clinical safety and tolerability, repeated dose, healthy volunteers (Example 2)", "source_text": "as §6, §4"}, "[8]": {"conditions": "Cohort 6 (control): 150 mg oral three times a day for 14 days, PK on day 14"}, "[9]": {"conditions": "Cohort 6: racemate 150 mg three times a day for 14 days, day 14, only S(−)-cibenzoline moiety"}, "[10]": {"conditions": "Cohort 3 (control): 150 mg oral three times a day, healthy volunteers"}, "[11]": {"conditions": "Cohort 3: racemate 150 mg oral three times a day, only S(−)-cibenzoline moiety"}, "[12]": {"conditions": "Cohort 4, 200 mg once a day, Day 5, 1.5 hr after administration"}, "[13]": {"conditions": "Cohort 4, 200 mg once a day, Day 5, 3 hr after administration"}, "[14]": {"conditions": "Cohort 4, 200 mg once a day, Day 5, 8 hr after administration"}, "[15]": {"conditions": "Cohort 4, 200 mg once a day, Day 5 before administration"}, "[16]": {"conditions": "Cohort 5, 300 mg once a day, Day 14, 1.5 hr after administration"}, "[17]": {"conditions": "Cohort 5, 300 mg once a day, Day 14, 3 hr after administration"}, "[18]": {"conditions": "Cohort 5, 300 mg once a day, Day 14, 8 hr after administration"}, "[19]": {"conditions": "Cohort 5, 300 mg once a day, Day 14 before administration"}, "[20]": {"conditions": "Cohort 1, 200 mg single dose, Day 1, 1.5 hr after administration"}, "[21]": {"conditions": "Cohort 1, 200 mg single dose, Day 1, 3 hr after administration"}, "[22]": {"conditions": "Cohort 1, 200 mg single dose, Day 1, 8 hr after administration"}, "[23]": {"conditions": "Cohort 1, 200 mg single dose, Day 1 before administration (baseline)"}, "[24]": {"conditions": "Cohort 2, 300 mg single dose, Day 1, 1.5 hr after administration"}, "[25]": {"conditions": "Cohort 2, 300 mg single dose, Day 1, 3 hr after administration"}, "[26]": {"conditions": "Cohort 2, 300 mg single dose, Day 1, 8 hr after administration"}, "[27]": {"conditions": "Cohort 2, 300 mg single dose, Day 1 before administration (baseline)"}, "[28]": {"conditions": "HOCM Cohort 1, 200 mg once a day, before administration (day 5), before unblinding: drug (6) and placebo (2)"}, "[29]": {"conditions": "HOCM Cohort 1, 200 mg once a day, day 5, 2.5 hours after administration"}, "[30]": {"conditions": "HOCM Cohort 1, 200 mg once a day, day 5, 6 hours after administration"}}, "note": "Read-outs that look alike come from different tables or passages of the source. Marks after values point to notes of the source that are not given here."}
{"smiles": "O=C(O)CCC(=O)O.c1ccc(C2(c3ccccc3)CC2C2=NCCN2)cc1", "note": "(racemic) [racemic cibenzoline succinate]", "values": [{"measurement": "Cmax", "setting": "[8]", "value": 608.1, "unit": "ng/mL"}, {"measurement": "Tmax", "setting": "[8]", "value": 1.3, "unit": "h"}, {"measurement": "AUC (extract of only S(−)-cibenzoline moiety)", "setting": "Cohort 6, day 14, only S(−)-cibenzoline moiety, simulation: 8-hour PK data multiplied by 3", "value": "(4732.2)* ng · hr/mL"}, {"measurement": "AUC", "setting": "Cohort 6: 150 mg three times a day for 14 days, simulation: 8-hour day 14 PK data multiplied by 3", "value": "8876.4* ng · hr/mL"}, {"measurement": "Cmax (extract of only S(−)-cibenzoline moiety)", "setting": "[9]", "value": "(334.2) ng/mL"}, {"measurement": "Tmax (extract of only S(−)-cibenzoline moiety)", "setting": "[9]", "value": "(1.0) h"}, {"measurement": "AUC", "setting": "[1]; [10]", "value": 7540.4, "unit": "ng·h/mL"}, {"measurement": "Cmax", "setting": "[1]; [10]", "value": 367.4, "unit": "ng/mL"}, {"measurement": "Tmax", "setting": "[1]; [10]", "value": 1.7, "unit": "h"}, {"measurement": "AUC (extract of only S(−)-cibenzoline moiety)", "setting": "[1]; [11]", "value": "(3610.3) ng · hr/mL"}, {"measurement": "Cmax (extract of only S(−)-cibenzoline moiety)", "setting": "[1]; [11]", "value": "(193.2) ng/mL"}, {"measurement": "Tmax (extract of only S(−)-cibenzoline moiety)", "setting": "[1]; [11]", "value": "(1.7) h"}]}
{"smiles": "c1ccc(C2(c3ccccc3)C[C@@H]2C2=NCCN2)cc1", "note": "[S(−)-cibenzoline succinate]", "values": [{"measurement": "QRS", "setting": "healthy volunteers [2]; [12]", "value": 100, "unit": "ms"}, {"measurement": "QTcF", "setting": "healthy volunteers [2]; [12]", "value": 417, "unit": "ms"}, {"measurement": "QRS", "setting": "healthy volunteers [2]; [13]", "value": 102, "unit": "ms"}, {"measurement": "QTcF", "setting": "healthy volunteers [2]; [13]", "value": 433, "unit": "ms"}, {"measurement": "QRS", "setting": "healthy volunteers [2]; [14]", "value": 96, "unit": "ms"}, {"measurement": "QTcF", "setting": "healthy volunteers [2]; [14]", "value": 417, "unit": "ms"}, {"measurement": "QRS", "setting": "healthy volunteers [2]; [15]", "value": 92, "unit": "ms"}, {"measurement": "QTcF", "setting": "healthy volunteers [2]; [15]", "value": 399, "unit": "ms"}, {"measurement": "QRS", "setting": "healthy volunteers [2]; [16]", "value": 124, "unit": "ms"}, {"measurement": "QTcF", "setting": "healthy volunteers [2]; [16]", "value": 435, "unit": "ms"}, {"measurement": "QRS", "setting": "healthy volunteers [2]; [17]", "value": 130, "unit": "ms"}, {"measurement": "QTcF", "setting": "healthy volunteers [2]; [17]", "value": 444, "unit": "ms"}, {"measurement": "QRS", "setting": "healthy volunteers [2]; [18]", "value": 110, "unit": "ms"}, {"measurement": "QTcF", "setting": "healthy volunteers [2]; [18]", "value": 427, "unit": "ms"}, {"measurement": "QRS", "setting": "healthy volunteers [2]; [19]", "value": 106, "unit": "ms"}, {"measurement": "QTcF", "setting": "healthy volunteers [2]; [19]", "value": 404, "unit": "ms"}, {"measurement": "QRS", "setting": "healthy volunteers [3]; [20]", "value": 102, "unit": "ms"}, {"measurement": "QTcF", "setting": "healthy volunteers [3]; [20]", "value": 412, "unit": "ms"}, {"measurement": "QRS", "setting": "healthy volunteers [3]; [21]", "value": 107, "unit": "ms"}, {"measurement": "QTcF", "setting": "healthy volunteers [3]; [21]", "value": 426, "unit": "ms"}, {"measurement": "QRS", "setting": "healthy volunteers [3]; [22]", "value": 99, "unit": "ms"}, {"measurement": "QTcF", "setting": "healthy volunteers [3]; [22]", "value": 408, "unit": "ms"}, {"measurement": "QRS", "setting": "healthy volunteers [3]; [23]", "value": 92, "unit": "ms"}, {"measurement": "QTcF", "setting": "healthy volunteers [3]; [23]", "value": 406, "unit": "ms"}, {"measurement": "QRS", "setting": "healthy volunteers [3]; [24]", "value": 107, "unit": "ms"}, {"measurement": "QTcF", "setting": "healthy volunteers [3]; [24]", "value": 419, "unit": "ms"}, {"measurement": "QRS", "setting": "healthy volunteers [3]; [25]", "value": 116, "unit": "ms"}, {"measurement": "QTcF", "setting": "healthy volunteers [3]; [25]", "value": 429, "unit": "ms"}, {"measurement": "QRS", "setting": "healthy volunteers [3]; [26]", "value": 107, "unit": "ms"}, {"measurement": "QTcF", "setting": "healthy volunteers [3]; [26]", "value": 415, "unit": "ms"}, {"measurement": "QRS", "setting": "healthy volunteers [3]; [27]", "value": 101, "unit": "ms"}, {"measurement": "QTcF", "setting": "healthy volunteers [3]; [27]", "value": 411, "unit": "ms"}, {"measurement": "Mean LVOT gradient at rest", "setting": "patients with HOCM [4]; [28]", "value": 90.18, "unit": "mmHg"}, {"measurement": "Mean LVOT gradient with Valsalva maneuver", "setting": "patients with HOCM [4]; [28]", "value": 128.50, "unit": "mmHg"}, {"measurement": "Mean LVOT gradient at rest, actual measured value", "setting": "patients with HOCM [4]; [29]", "value": 77.09, "unit": "mmHg"}, {"measurement": "Mean LVOT gradient at rest, decrease rate", "setting": "patients with HOCM [4]; [29]", "value": 15, "unit": "%"}, {"measurement": "Mean LVOT gradient with Valsalva maneuver, actual measured value", "setting": "patients with HOCM [4]; [29]", "value": 98.22, "unit": "mmHg"}, {"measurement": "Mean LVOT gradient with Valsalva maneuver, decrease rate", "setting": "patients with HOCM [4]; [29]", "value": 24, "unit": "%"}, {"measurement": "Mean LVOT gradient at rest, actual measured value", "setting": "patients with HOCM [4]; [30]", "value": 88.07, "unit": "mmHg"}, {"measurement": "Mean LVOT gradient at rest, decrease rate", "setting": "patients with HOCM [4]; [30]", "value": 2, "unit": "%"}, {"measurement": "Mean LVOT gradient with Valsalva maneuver, actual measured value", "setting": "patients with HOCM [4]; [30]", "value": 126.52, "unit": "mmHg"}, {"measurement": "Mean LVOT gradient with Valsalva maneuver, decrease rate", "setting": "patients with HOCM [4]; [30]", "value": 2, "unit": "%"}, {"measurement": "drug-related adverse event", "setting": "patients with HOCM [5]", "value": "no drug-related adverse event occurred"}]}
{"smiles": "c1ccc(C2(c3ccccc3)C[C@@H]2C2=NCCN2)cc1", "note": "[S(−)-cibenzoline, S-2-(2,2-diphenylcyclopropyl)-4,5-dihydro-1H-imidazole]", "values": [{"measurement": "decrease of left ventricular outflow tract (LVOT) gradient after drug administration", "setting": "patients with HOCM [4]; HOCM patients, Example 3", "value": "about 10 mmHg"}, {"measurement": "safety and tolerability", "setting": "healthy volunteers [6]; 200 mg or 300 mg once a day, single dose, healthy volunteers", "value": "safe and tolerable"}, {"measurement": "serious side effects", "setting": "healthy volunteers [6]; Cohorts 1 and 2 (200 mg or 300 mg once a day, single dose) compared to Cohort 3, healthy volunteers", "value": "no serious side effects occurred"}, {"measurement": "safety and tolerability", "setting": "healthy volunteers [7]; 200 mg or 300 mg once a day, repeated dose, healthy volunteers", "value": "safe and tolerable"}, {"measurement": "serious side effects", "setting": "healthy volunteers [7]; Cohorts 4 and 5 (200 mg once a day 5 days; 300 mg once a day 14 days) compared to Cohort 6", "value": "serious side effects did not occur"}]}
